According to US20010044437A1, “Methods for reducing uric acid levels” (priority 2000, published 2001):
Where “and” joins values, the source holds several entries; their conditions need not be identical. Equal entries are not always repeated.

Assays:
serum uric acid [1] = assay: Serum uric acid after a single dose (tablet or suspension) in healthy human subjects (Example 33); format: in vivo; conditions: individual subjects
Method: Thirty six healthy human subjects are administered either […] or a suspension containing the noted amount of the compound of Example 3 after fasting for at least 8 hours. subjects are administered 200 mg of compound; twelve subjects are administered 400 mg of compound; and twelve subjects are administered 600 mg of compound. Blood was collected before subjects are given the compound (Day −1) and the day following administration (Day 2). Serum uric levels may be measured using standard automated procedures on a uricase peroxidase method. Serum uric acid levels are […] in mg/dL.

serum uric acid [2] = assay: Serum uric acid during 28-day once-daily oral dosing, placebo-controlled study in 48 subjects (Example 34); format: in vivo, human
Method: In another study, 48 subjects were divided into four groups, A, B, C and D, and administered the noted amount of the compound of Example 3. Each group was composed of 12 subjects of whom 9 received the compound and 3 received placebo. The non-placebo members of group A received 50 mg of compound, administered orally once a day for 28 days as a single 50 mg tablet. The non-placebo members of group B received 200 mg of compound administered orally once a day for 28 days as a single 200 mg tablet. The non-placebo members of group C received 500 mg of compound administered orally once a day for 28 days as two 50 mg tablets and two 200 mg tablets. The non-placebo members of group D received 800 mg of compound administered orally once a day for 28 days as four 200 mg tablets. The 3 placebo members of each group, received an amount of placebo, as a tablet, equivalent to the amount of test compound—50 mg placebo for group A, 200 mg placebo for group B, 500 mg placebo for group C and 800 mg placebo for group D. Each subject received a single dose of either compound or placebo for 28 days. The subjects were confined at the clinical site beginning the day before dose administration until 72 hours after the final dose administration on Day 28 and returned for an outpatient visit on Day 35.
Uric acid levels were measured prior to beginning the study (screening), on the day immediately prior to commencement of the study (day-1), and then as noted in the table. Hours indicates the time since the last dose was administered. For example, Day 7, 0 hour indicates the time the serum uric acid level at the time the dose was administered and Day 7, 2 hour indicates the uric acid level two hours after the adminstration that day. Further, the Day 30, 60 hour level is the serum uric acid level measured 60 hours (on Day 30) after the last dose was administered on Day 28. The uric acid levels are presented in mg/dL as a mean of all subjects in each group.

## O=C(O)Cn1cc(Cc2nc3c(F)c(F)cc(F)c3s2)c2ccccc21 [Example 3, 3-(4,5,7-Trifluorobenzothiazol-2-yl)methyl-indole-N-acetic Acid]
Serum uric acid [1]; 200 mg suspension, Day 2 vs Day-1
  % Reduction (Suspension): 36% (3×) and 27% and 25% and −51% and 23% (2×) and 35% and 0% and 20% and 11%
Serum uric acid [1]; 200 mg suspension, before administration (baseline)
  Uric Acid Day-1 Suspension: 5.0 mg/dL (2×) and 6.0 mg/dL and 5.3 mg/dL (2×) and 4.3 mg/dL and 5.2 mg/dL and 5.5 mg/dL and 4.7 mg/dL and 3.3 mg/dL and 6.3 mg/dL and 4.5 mg/dL
Serum uric acid [1]; 200 mg suspension, day following administration
  Uric Acid Day 2 (Suspension): 3.2 mg/dL and 4.4 mg/dL and 4.0 mg/dL (3×) and 6.5 mg/dL and 3.6 mg/dL (2×) and 5.3 mg/dL and 2.1 mg/dL and 5.6 mg/dL and 2.9 mg/dL
Serum uric acid [1]; 200 mg tablet, Day 2 vs Day-1
  % reduction (Tablet): 28% and 27% and 26% and −3% and 16% (2×) and 39% (2×) and −2% and 32% and 41% and −16%
Serum uric acid [1]; 200 mg tablet, before administration (baseline)
  Uric Acid Day-1 Tablet: 5.0 mg/dL and 6.3 mg/dL and 5.3 mg/dL and 5.8 mg/dL and 4.9 mg/dL (3×) and 6.2 mg/dL and 5.2 mg/dL and 5.7 mg/dL and 3.7 mg/dL and 5.1 mg/dL
Serum uric acid [1]; 200 mg tablet, day following administration
  Uric Acid Day 2 (Tablet): 3.6 mg/dL and 4.6 mg/dL and 3.9 mg/dL (2×) and 6.0 mg/dL and 4.1 mg/dL (2×) and 3.8 mg/dL and 5.3 mg/dL and 2.2 mg/dL and 5.7 mg/dL and 3.1 mg/dL
Serum uric acid [1]; 400 mg, Day 2 vs Day-1
  % reduction: 47% and 5% and 67% and 9% and 49% and 43% and 2% and 36% and 45% and 51% and −13% and 24%
Serum uric acid [1]; 400 mg, before administration (baseline)
  Uric acid Day-1: 4.5 mg/dL and 4.3 mg/dL and 6.6 mg/dL and 5.3 mg/dL and 3.7 mg/dL and 5.6 mg/dL and 6.0 mg/dL and 4.7 mg/dL (2×) and 7.7 mg/dL and 6.2 mg/dL and 4.6 mg/dL
Serum uric acid [1]; 400 mg, day following administration
  Uric acid Day 2: 2.4 mg/dL and 4.1 mg/dL and 2.2 mg/dL and 4.8 mg/dL and 1.9 mg/dL and 3.2 mg/dL and 5.9 mg/dL and 3.0 mg/dL and 4.2 mg/dL and 2.3 mg/dL and 7.0 mg/dL and 3.5 mg/dL
Serum uric acid [1]; 600 mg, Day 2 vs Day-1
  % reduction: −6% and −44% and 45% and 55% and 42% and 2% and 57% and 47% and 37% and 58% and 50%
Serum uric acid [1]; 600 mg, before administration (baseline)
  Uric acid Day-1: 4.7 mg/dL and 4.3 mg/dL and 5.5 mg/dL and 4.4 mg/dL (2×) and 5.9 mg/dL and 4.6 mg/dL and 3.5 mg/dL and 3.4 mg/dL and 3.0 mg/dL and 3.9 mg/dL
Serum uric acid [1]; 600 mg, day following administration
  Uric acid Day 2: 5.0 mg/dL and 33 mg/dL and 6.2 mg/dL and 3.0 mg/dL and 2.0 mg/dL and 3.4 mg/dL and 4.5 mg/dL and 1.5 mg/dL and 1.8 mg/dL and 1.9 mg/dL and 1.7 mg/dL and 2.2 mg/dL
Serum uric acid [2]; group A 50 mg orally once a day, Day 1 8 Hour
  Uric Acid Level (mean of all subjects in each group): 3.94 mg/dL
Serum uric acid [2]; group A 50 mg orally once a day, Day 1 10 Hour
  Uric Acid Level (mean of all subjects in each group): 3.87 mg/dL
Serum uric acid [2]; group A 50 mg orally once a day, Day 1 12 Hour
  Uric Acid Level (mean of all subjects in each group): 3.89 mg/dL
Serum uric acid [2]; group A 50 mg orally once a day, Day 1 16 Hour
  Uric Acid Level (mean of all subjects in each group): 3.98 mg/dL
Serum uric acid [2]; group A 50 mg orally once a day, Day 1 24 Hour
  Uric Acid Level (mean of all subjects in each group): 4.19 mg/dL
Serum uric acid [2]; group A 50 mg orally once a day, Day 3
  Uric Acid Level (mean of all subjects in each group): 3.62 mg/dL
Serum uric acid [2]; group A 50 mg orally once a day, Day 7 0 Hour
  Uric Acid Level (mean of all subjects in each group): 3.36 mg/dL
Serum uric acid [2]; group A 50 mg orally once a day, Day 7 0.5 Hour
  Uric Acid Level (mean of all subjects in each group): 3.33 mg/dL
Serum uric acid [2]; group A 50 mg orally once a day, Day 7 1 Hour
  Uric Acid Level (mean of all subjects in each group): 3.28 mg/dL
Serum uric acid [2]; group A 50 mg orally once a day, Day 7 2 Hour
  Uric Acid Level (mean of all subjects in each group): 3.14 mg/dL
Serum uric acid [2]; group A 50 mg orally once a day, Day 7 3 Hour
  Uric Acid Level (mean of all subjects in each group): 3.03 mg/dL
Serum uric acid [2]; group A 50 mg orally once a day, Day 7 4 Hour
  Uric Acid Level (mean of all subjects in each group): 2.99 mg/dL
Serum uric acid [2]; group A 50 mg orally once a day, Day 7 6 Hour
  Uric Acid Level (mean of all subjects in each group): 3.30 mg/dL
Serum uric acid [2]; group A 50 mg orally once a day, Day 7 8 Hour
  Uric Acid Level (mean of all subjects in each group): 3.34 mg/dL
Serum uric acid [2]; group A 50 mg orally once a day, Day 7 10 Hour
  Uric Acid Level (mean of all subjects in each group): 3.36 mg/dL
Serum uric acid [2]; group A 50 mg orally once a day, Day 7 12 Hour
  Uric Acid Level (mean of all subjects in each group): 3.26 mg/dL
Serum uric acid [2]; group A 50 mg orally once a day, Day 7 16 Hour
  Uric Acid Level (mean of all subjects in each group): 3.07 mg/dL
Serum uric acid [2]; group A 50 mg orally once a day, Day 7 24 Hour
  Uric Acid Level (mean of all subjects in each group): 3.48 mg/dL
Serum uric acid [2]; group A 50 mg orally once a day, Day 14 0 Hour
  Uric Acid Level (mean of all subjects in each group): 3.51 mg/dL
Serum uric acid [2]; group A 50 mg orally once a day, Day 14 0.5 Hour
  Uric Acid Level (mean of all subjects in each group): 3.43 mg/dL
Serum uric acid [2]; group A 50 mg orally once a day, Day 14 1 Hour
  Uric Acid Level (mean of all subjects in each group): 3.41 mg/dL
Serum uric acid [2]; group A 50 mg orally once a day, Day 14 2 Hour
  Uric Acid Level (mean of all subjects in each group): 3.37 mg/dL
Serum uric acid [2]; group A 50 mg orally once a day, Day 14 3 Hour
  Uric Acid Level (mean of all subjects in each group): 3.19 mg/dL
Serum uric acid [2]; group A 50 mg orally once a day, Day 14 4 Hour
  Uric Acid Level (mean of all subjects in each group): 3.17 mg/dL
Serum uric acid [2]; group A 50 mg orally once a day, Day 14 6 Hour
  Uric Acid Level (mean of all subjects in each group): 3.38 mg/dL
Serum uric acid [2]; group A 50 mg orally once a day, Day 14 8 Hour
  Uric Acid Level (mean of all subjects in each group): 3.34 mg/dL
Serum uric acid [2]; group A 50 mg orally once a day, Day 14 10 Hour
  Uric Acid Level (mean of all subjects in each group): 3.24 mg/dL
Serum uric acid [2]; group B 200 mg orally once a day, Day 1 8 Hour
  Uric Acid Level (mean of all subjects in each group): 3.37 mg/dL
Serum uric acid [2]; group B 200 mg orally once a day, Day 1 10 Hour
  Uric Acid Level (mean of all subjects in each group): 3.16 mg/dL
Serum uric acid [2]; group B 200 mg orally once a day, Day 1 12 Hour
  Uric Acid Level (mean of all subjects in each group): 3.12 mg/dL
Serum uric acid [2]; group B 200 mg orally once a day, Day 1 16 Hour
  Uric Acid Level (mean of all subjects in each group): 3.01 mg/dL
Serum uric acid [2]; group B 200 mg orally once a day, Day 1 24 Hour
  Uric Acid Level (mean of all subjects in each group): 3.64 mg/dL
Serum uric acid [2]; group B 200 mg orally once a day, Day 3
  Uric Acid Level (mean of all subjects in each group): 2.94 mg/dL
Serum uric acid [2]; group B 200 mg orally once a day, Day 7 0 Hour
  Uric Acid Level (mean of all subjects in each group): 2.86 mg/dL
Serum uric acid [2]; group B 200 mg orally once a day, Day 7 0.5 Hour
  Uric Acid Level (mean of all subjects in each group): 2.79 mg/dL
Serum uric acid [2]; group B 200 mg orally once a day, Day 7 1 Hour
  Uric Acid Level (mean of all subjects in each group): 2.74 mg/dL
Serum uric acid [2]; group B 200 mg orally once a day, Day 7 2 Hour
  Uric Acid Level (mean of all subjects in each group): 2.61 mg/dL
Serum uric acid [2]; group B 200 mg orally once a day, Day 7 3 Hour
  Uric Acid Level (mean of all subjects in each group): 2.50 mg/dL
Serum uric acid [2]; group B 200 mg orally once a day, Day 7 4 Hour
  Uric Acid Level (mean of all subjects in each group): 2.47 mg/dL
Serum uric acid [2]; group B 200 mg orally once a day, Day 7 6 Hour
  Uric Acid Level (mean of all subjects in each group): 2.72 mg/dL
Serum uric acid [2]; group B 200 mg orally once a day, Day 7 8 Hour
  Uric Acid Level (mean of all subjects in each group): 2.54 mg/dL
Serum uric acid [2]; group B 200 mg orally once a day, Day 7 10 Hour
  Uric Acid Level (mean of all subjects in each group): 2.53 mg/dL
Serum uric acid [2]; group B 200 mg orally once a day, Day 7 12 Hour
  Uric Acid Level (mean of all subjects in each group): 2.44 mg/dL
Serum uric acid [2]; group B 200 mg orally once a day, Day 7 16 Hour
  Uric Acid Level (mean of all subjects in each group): 2.43 mg/dL
